Where a name gives a salt, the structure may show the parent alone. Read-outs that look alike come from different tables or passages of the source.
How the values were obtained:
[1] = test system: platelet hyper-aggregation induced by ADP; assay: Inhibition of ADP-induced platelet hyperaggregation in vitro (Born's method, aggregometer ELVI 840); type: cell-based, New Zealand rabbits; details: Oryctolagus cuniculus, 0.5 h, read-out: Inhibition of platelet hyper-aggregation induced by ADP
Protocol: Two separate centrifugations are effected (at 1000 rpm and at 6000 rpm), thus obtaining PRP ([…]) and PPP ([…]); the first is diluted with the second in order to obtain a platelet concentration of 300,000 per mm^3 (the count is effected in a Buerker apparatus). The compounds with a platelet antiaggregating activity of the present invention are added at the desired concentrations and incubated for 30 minutes at 37° C. with the aggregating agents. […] The various compounds represented by the numbers in the first column are identifiable by the numbers in the second column which refer to the examples described below in this specification.

[2] = Acute toxicity in the mouse, oral; parameters: species or system mouse (Swiss); details: in vivo, aqueous solution, up to 14 days, Litchfield and Wilcoxon
Protocol: Acute toxicity in the mouse: groups of Swiss mice (male+female) are treated with graduated doses ranging from 0.125 g/kg to 5 g/kg of body weight with compounds 19 to 26. The compounds are administered orally by intubation and dissolved in water.
Subsequent death may be immediate or may occur at any time up to 14 days after treatment. The lethal dose 50 (LD50), that is, the dose which causes the death of 50% of the animals, is evaluated by the method of Litchfield and Wilcoxon (J. Pharmacol. Exp. Ther. 96, 99-113, 1949).

[3] = test system: coagulation; assay: Thrombotest on capillary blood (anticoagulating effect); type: in vivo, mice (C57B1/6J); details: oral, controls 31.4 ± 1.7
Protocol: In a separate experiment, the anticoagulating activity of the compounds is verified on the same strain of mice at the same doses used for antimetastatic activity evaluation.
The effect on coagulation is measured by a thrombotest on capillary blood taken from the retroorbital cavity (Owren, P. A. et al. Lancet ii, 754-758, 1959).
(§1) The anticoagulating effect measured by the "thrombotest", the antitumor effect measured by the decrease in weight of the primary tumor and the antimetastatic effect shown as the number of metasteses present in the lungs, are reported in Table 2. While the antitumor and antimetastatic effects of Warfarin and the two new products according to the present invention are roughly equal, the strong anticoagulating effect is absent in the two new products of the invention. This is a completely unexpected result.

[4] = test system: 3 LL carcinoma cells (Lewis lung carcinoma); assay: Antitumor and antimetastatic activity in mice implanted with 3 LL Lewis lung carcinoma; type: in vivo, male mice of the C57B1/6J strain; details: oral; for antitumoral and antimetastatic activity (in words): in vivo on mice; for No. of metastases: lungs, controls 21.8 ± 4.9; for No. of metastases / Primary Tumor Weight: 25th day after transplant; for Primary Tumor Weight: controls 9087 ± 386
Protocol: This activity is to be seen for instance after administration of doses of between 0.2 mg/kg and 10 mg/kg by the oral route, as illustrated by the following experiments.
1×10^5 3 LL carcinoma cells (Lewis lung carcinoma) are implanted by intramuscular injection in the paws of male mice of the C57B1/6J strain, weighing about 20-22 g. This operation is effected as described in the literature (Poggi A. et al. Cancer Res. 37, 272-277, 1977). The growth of the tumor is observed until the 25th day after transplant. On this day the animals are sacrificed and the primary tumor and lungs are removed in order to evaluate the growth of the primary tumor and the number of metastases. Pharmacological treatment by the oral route begins 2 days before transplant of the tumor and continues until sacrifice. The substances are dissolved in tap water and are changed every 24 hours.
Table 2 reports the results obtained with the two coumarin derivatives 19 and 26, previously mentioned in comparison to Warfarin, the well-known […] and antimetastatic compound, which is also a coumarin derivative. Warfarin's antimetastatic activity is widely documented both experimentally (Zacharski, L. R. et al. Cancer 44, 732-741, 1979 and Poggi, A. et al. Lancet i 163-164, 1978) and clinically (Zacharski, L. R. et al. J. Am. Med. Assoc. 245, 831-835, 1981). […] This effect is measured by the number of metastases (Zacharski, L. R. et al. Cancer 44, 732-741, 1979 and Poggi, A. et al. Lancet i 163-164, 1978).
as §1

[5] = Acute toxicity in the rat, oral; parameters: species or system rat (Sprague Dawley); details: in vivo, aqueous solution, up to 14 days, Litchfield and Wilcoxon
Protocol: Acute toxicity in the rat: groups of Sprague Dawley rats (male+female) are treated with graduated doses ranging from 0.125 g/kg of body weight to 10 g/kg of body weight of the above mentioned compounds in aqueous solution. The compounds are administered orally by intubation. Subsequent death may be immediate or may occur at any time up to 14 days after treatment.
The lethal dose 50 (LD50), that is, the dose which causes the death of 50% of the animals, is evaluated by the method of Litchfield and Wilcoxon (J. Pharmacol. Ex. Ther. 96, 99-113, 1949).

[6] = test system: 3 LL carcinoma cells (Lewis lung carcinoma); details: number of metastases; mice of the C57B1/6J strain; cited from earlier work
[7] = test system: lung carcinoma; details: cited from earlier work
[8] = 1st adminis. 2.1 mg/kg, 2nd adminis. 0.5 mg/kg
[9] = ADP 20 μg/ml, 100 γ/ml of active compound, rabbit PRP, incubated 30 minutes at 37° C
[10] = 1st adminis. 1.5 mg/kg, 2nd adminis. 0.3 mg/kg

C=CCc1c(O)c(CN2CCN(CCO)CC2)cc2c(C)cc(=O)oc12.ClOCl [Compound 26, 4-methyl-6-[[4-(2-hydroxyethyl)-1-piperazinyl]methyl]-7-hydroxy-8-allylcumarin dichlorohydrate]
inhibition at 100 µg/mL [1]: 23%
LD50 at 336 h [2]: 1950 mg/kg
Thrombotest [3, 8]: 33.4 ± 1.2
antitumoral and antimetastatic activity (in words) [4]: antitumoral and antimetastatic activity
No. of metastases [4, 8]: 9.8 ± 2.8
Primary Tumor Weight [4, 8]: 6789 ± 349 mg
LD50 at 336 h [5]: 3160 mg/kg

C=CCOc1c(CN2CCOCC2)cc2c(C)c(CCN(CC)CC)c(=O)oc2c1Cl [Compound 67, 3-(2-diethylaminoethyl)-4-methyl-6-(4-morpholinylmethyl)-7-allyloxy-8-chlorocumarin hydrochloride]
inhibition at 100 µg/mL [1, 9]: 18%

C=CCc1c(O)c(CN2CCCC2)cc2c(C)cc(=O)oc12 [Compound 117, 4-methyl-6-(1-pyrrolidinylmethyl)-7-hydroxy-8-allylcumarin hydrochloride]
inhibition at 100 µg/mL [1, 9]: 44%

C=CCc1c(O)c(CN(C)C)cc2c(C)cc(=O)oc12.Cl [Compound 19, 4-methyl-6-dimethylaminomethyl-7-hydroxy-8-allylcumarin hydrochloride]
inhibition at 100 µg/mL [1, 9]: 40%
LD50 at 336 h [2]: 1210 mg/kg
Thrombotest [3, 10]: 29.3 ± 1.7
antitumoral and antimetastatic activity (in words) [4]: antitumoral and antimetastatic activity
No. of metastases [4, 10]: 11.4 ± 3.3
Primary Tumor Weight [4, 10]: 6731 ± 533 mg
LD50 at 336 h [5]: 2000 mg/kg

O=c1cc(-c2ccccc2)c2cc(CN3CCOCC3)c(O)c(Cl)c2o1 [Compound 102, 4-phenyl-6-(4-morpholinylmethyl)-7-hydroxy-8-chlorocumarin hydrochloride]
inhibition at 100 µg/mL [1, 9]: 12%

CCN(CC)Cc1cc2c(C)cc(=O)oc2c(Cl)c1O [Compound 76, 4-methyl-6-diethylaminomethyl-7-hydroxy-8-chlorocumarin hydrochloride]
inhibition at 100 µg/mL [1, 9]: 27%

CC(=O)CC(c1ccccc1)c1c(O)c2ccccc2oc1=O (centres unmarked) [Warfarin, reference compound]
antimetastatic effect on Lewis lung carcinoma (in words) [6]: has an antimetastatic effect
anticoagulating activity in antitumor therapy (in words) ([7]; human, in vivo): strong anticoagulating activity
survival time in patients with lung carcinoma (in words) ([7]; in association with chemotherapy and radiation): prolongs survival time
Thrombotest ([3]; doses not given): 180
No. of metastases ([4]; doses not given): 12.4 ± 0.9
Primary Tumor Weight ([4]; doses not given): 6274 ± 690 mg

C=CCc1c(O)c(CN2CCCCC2)cc2c(C)cc(=O)oc12 [Compound 124, 4-methyl-6-(1-piperidinylmethyl)-7-hydroxy-8-allylcumarin hydrochloride]
inhibition at 100 µg/mL [1, 9]: 38%

CCN(CC)CCc1c(C)c2cc(CN3CCOCC3)c(O)c(Cl)c2oc1=O [Compound 58, 3-(2-diethylaminoethyl)-4-methyl-6-(4-morpholinylmethyl)-7-hydroxy-8-chlorocumarin dihydrochloride]
inhibition at 100 µg/mL [1, 9]: 25%

C=CCc1c(O)c(CN2CCOCC2)cc2c(-c3ccccc3)cc(=O)oc12 [Compound 44, 4-phenyl-6-(4-morpholinylmethyl)-7-hydroxy-8-allylcumarin hydrochloride]
inhibition at 100 µg/mL [1, 9]: 20%

Cc1cc(=O)oc2c(Cl)c(O)c(CN(C)C)cc12 [Compound 132, 4-methyl-6-dimethylaminomethyl-7-hydroxy-8-chlorocumarin hydrochloride]
inhibition at 100 µg/mL [1, 9]: 13%

CCOC(=O)COc1c(CN2CCOCC2)cc2c(C)c(CCN(CC)CC)c(=O)oc2c1Cl [Compound 62, Ethyl ester of [3-(2-diethylaminoethyl)-4-methyl-6-(4-morpholinylmethyl)-8-chlorocumarin-7-yl]oxyacetic acid dihydrochloride]
inhibition at 100 µg/mL [1, 9]: 23%

Reference: patent US4737517A, “Coumarin derivatives, pharmaceutical compositions containing the same, and the use thereof in the treatment of cancer” (FIDIA, S.p.A., priority 1983, dated 1988)
